Laboratory results reported in article PMC5799307, “Creation of a long-acting nanoformulated dolutegravir” (Nature Communications, 2018).

Legend:
[1] = Aqueous solubility (excess drug in water, room temperature, overnight, UPLC); format: physicochemical
Experimental: (§1) A lipophilic and hydrophobic modified DTG prodrug (called MDTG) was synthesized through myristoylation of the parent drug hydroxyl group. Initially, DTG was dried by co-evaporation from anhydrous pyridine then resuspended in anhydrous DMF and cooled to 0 °C under argon. 2-equivalents DIEA were used to deprotonate the 7-hydroxyl group of DTG, which was then immediately reacted with 2 equivalents myristoyl chloride for 24 h. The resultant product was purified by silica gel column chromatography using an initial mobile phase of 4:1 ethyl acetate: hexanes for 12 fractions, then 9:1 ethyl acetate: hexanes for the remainder. […] ESI-MS specifics (m/z): calculated for C34H45F2N3O6, 629.33 (100%), 630.33 (36.8%), 631.33 (3.9%); found, 630.30. […] The aqueous solubility of DTG and MDTG was evaluated by adding excess drug to water at room temperature then mixing it overnight. […] Solubilized drug in the supernatant was extracted in methanol and measured using a Waters ACQUITY ultra performance liquid chromatography (UPLC) H-Class System with TUV detector and Empower 3 software (Milford, MA). For DTG and MDTG quantitation, drug extracts were separated on a Phenomenex Kinetex 5 μm C18 column (150 × 4.6 mm) (Torrance, CA) using either 65% 50 mM KH2PO4, pH 3.2/35% ACN (DTG) or 90% ACN/10% water (MDTG) with a flow rate of 1.0 mL/min and detected at 254 nm and 230 nm, respectively. […]

[2] = Ex vivo cleavage kinetics of MDTG in mouse whole blood; format: in vitro ADME; conditions: after 60 min
Experimental: as §1, with “remainder. Once purified, fractions containing the UV active prodrug were dried and precipitated from diethyl ether. The precipitate was collected by centrifugation at 3500 r.p.m. for 15 min and dried under vacuum, while the supernatant was discarded. MDTG was synthesized at a final drug yield of 82.8%. Proton nuclear magnetic resonance (^1H NMR), carbon nuclear magnetic resonance (^13C NMR), and Fourier-transform infrared (FTIR) spectroscopy, positive electrospray ionization mass spectroscopy (ESI-MS), and powder X-ray diffraction (XRD) were used to characterize the structure of MDTG.” for “remainder.”, “respectively. Drug content was quantitated by comparison of peak area to those of known standards (0.05–50 µg/mL). Ex vivo cleavage kinetics of MDTG was assessed in mouse whole blood.” for “respectively.”

[3] = tested on: HIV-1; set-up: method as in PMID 21115794; conditions: cited from earlier work

Q: Which “decrease in aqueous solubility compared to DTG” value [1] does the source give for `CCCCCCCCCCCCCC(=O)Oc1c2n(cc(C(=O)NCc3ccc(F)cc3F)c1=O)C[C@@H]1OCC[C@@H](C)N1C2=O` [MDTG] here?
A: Its value is 8.7 fold.

Q: What about the MDTG cleaved ([2]; after acetonitrile (ACN) addition) of the same compound?
A: Its MDTG cleaved is 21.9%.

Q: What about the MDTG hydrolyzed ([2]; blood diluted ten-fold) of the same compound?
A: The MDTG hydrolyzed was 88.7%.

Q: What about the MDTG hydrolyzed ([2]; blood spiked with an esterase inhibitor) of the same compound?
A: Its MDTG hydrolyzed is 15.2%.

Q: And the MDTG cleaved ([2]; whole blood, room temperature)?
A: The MDTG cleaved was 79.9%.

Q: Which “protein-adjusted inhibitory concentration90 (PA-IC90)” value [3] does the source give for `C[C@@H]1CCO[C@H]2Cn3cc(C(=O)NCc4ccc(F)cc4F)c(=O)c(O)c3C(=O)N12` [DTG, dolutegravir] here?
A: Its value is 0.064 µg/mL.
